# Reference: patent US9370587B2, “Coloring substance for diagnostic ophtalmologic use” (IROS R.C. S.r.l., priority 2012, dated 2016)
# Entries after “also recorded” stand apart in the source; their conditions may differ.
# Key:
# epithelial cells = assay: Staining behaviour on tear film and corneal epithelial cells
# [1] = Tolerability of topical use on the eye; type: in vivo, human; conditions: topical ocular use
smiles,measurement,setting,value
Cc1cc2nc3c(=O)[nH]c(=O)nc-3n(C[C@H](O)[C@H](O)[C@H](O)CO)c2cc1C [riboflavin],penetration into cells,epithelial cells,does not penetrate into the cells
same,harmfulness / side effects on the eye,[1],not harmful to the human eye; also recorded: side no effects; also recorded: absence of toxic effects on the corneal epithelium
